SMILES strings stand for the structures.

Series [1] relates to ulcerative colitis induced by dextran sodium sulfate (DSS). The note with it: cited from earlier work.
For series [2], the system named is aryl hydrocarbon receptor (AhR). Put plainly: SEAP reporter assay in HeXS34 cells (pXRE-SEAP) for AhR-activating potency. It is filed as cell-based, mouse. The note with it: 10 μM αNF preincubated 30 minutes, then 10% v/v OLL1181 for 24 hours. The method, then: The HeXS34 cells prepared in (1) maintained in MEMα medium (Invitrogen, Carlsbad, Calif.) supplemented with 10% fetal bovine serum (FBS) were sown on a 96 well plate at 5000 cells/90 μL per well, and cultured for 24 hours in the presence of and in the absence of 10 μL (5×10^9 cells/mL) of a freeze-dried heat-sterilized lactic acid bacterium strain. […] Culture supernatants were subsequently subjected to an SEAP assay. The culture supernatant obtained in (2) was subjected to quantitative determination of SEAP by a chemiluminescence method using a Great EscAPe SEAP Chemiluminescence kit (Clontech). The assay was carried out three times, and the average value was determined using the luminescence intensity (LU) so obtained as the SEAP activity. […] In the same way as for Example 1, stimulation was carried out for 24 hours using heat-sterilized suspensions of the two types of lactic acid bacterium strains (5×10^9 cells/mL solution was added at 5% v/v and 10% v/v), and the culture supernatant was subjected to SEAP assay. […] (3).
Background: In a reporter assay the amount or activity of a reporter protein is the signal.

The subject of series [3] is CYP1A1 expression in Caco2 cells. Briefly: CYP1A1 expression in Caco2 cells by quantitative real-time PCR. It is filed as cell-based, human. The note with it: 5 μM αNF preincubated 30 minutes. Background: Real-time PCR tracks product formation cycle by cycle.
Method: Human Caco2 cells were cultured in DMEM medium (Invitrogen/Gibco, Carlsbad, Calif.) supplemented with 10% FBS and an antibiotic, a portion was preincubated with 5 μM αNF for 30 minutes, and both that which had been preincubated and that which had not been preincubated were subjected to stimulation with a 10% v/v heat-sterilized OLL1181 strain suspension for 4 hours.
The Caco2 cells obtained in (1) were subjected to quantitative real-time PCR. The quantitative real-time PCR was carried out using an ABI 7300 real-time PCR system (Applied Biosystems, Foster City, Calif.) in accordance with an instruction manual. With regard to a primer and a probe, those for human CYP1A1 (Assay ID: Hs02382618_s1) and those for glyceraldehyde-3-phosphate dehydrogenase (GAPDH) (Assay ID: Hs99999905_m1) (Applied Biosystems) were used. The level of CYP1A1 gene expression relative to the level of GAPDH gene expression was calculated and defined as the relative level of CYP1A1 gene expression.
For series [4], the system named is PGE2 secretion by Caco2 cells. Briefly: Prostaglandin E2 (PGE2) ELISA of Caco2 culture supernatant. Format: cell-based. The note with it: human Caco2 cells, αNF preincubation. A general note: ELISA stands for enzyme-linked immunosorbent assay.
[5] abbreviates: DSS-treated mouse, compared with no TCDD.

On to `Clc1cc2c(cc1Cl)Oc1cc(Cl)c(Cl)cc1O2` [TCDD, 2,3,7,8-tetrachlorodibenzo-p-dioxin], for which, in series [1] (setting [5]), the Inflammation score entry is listed as “significantly suppressed”, the “Production of inflammatory cytokines” value was “significantly suppressed”, the “Shortening of the intestinal tract” value is “significantly suppressed” and the Weight loss result is recorded as “significantly suppressed”. In addition, the “Inflammatory response of ulcerative colitis induced by DSS” value in series [1] (mouse, in vivo) is on record as “suppresses”.

On to `O=c1cc(-c2ccccc2)oc2c1ccc1ccccc12` [αNF, α-naphthoflavone], for which the “Effect on the increase in SEAP activity caused by stimulation with the OLL1181 strain” value in series [2] is recorded as “significantly inhibited”. Further, the “Effect on the OLL1181-induced increase of CYP1A1 expression” value in series [3] was “significantly suppressed”. In series [4], the “Effect on PGE2 production by stimulation with the OLL1181 strain” value is “inhibited”.
